Laboratory results taken from publication PMC7394479 (Journal of medicinal chemistry, 2020).
“Also recorded” adds a separate entry of the source. Read-outs that look alike come from different tables or passages of the source. Each block holds one compound with its values, some of them ahead of it.

How the values were obtained:
[1] = molecular target: T1, human DP1 receptor (Homo sapiens, UniProt Q13258); test: Cell-based cAMP TR-FRET assay, Schild KB against BW245C at DP1; conditions: for S.I. (DP1/EP2): selectivity index DP1 KB/EP2 KB
T1 sequence (Q13258 1-359): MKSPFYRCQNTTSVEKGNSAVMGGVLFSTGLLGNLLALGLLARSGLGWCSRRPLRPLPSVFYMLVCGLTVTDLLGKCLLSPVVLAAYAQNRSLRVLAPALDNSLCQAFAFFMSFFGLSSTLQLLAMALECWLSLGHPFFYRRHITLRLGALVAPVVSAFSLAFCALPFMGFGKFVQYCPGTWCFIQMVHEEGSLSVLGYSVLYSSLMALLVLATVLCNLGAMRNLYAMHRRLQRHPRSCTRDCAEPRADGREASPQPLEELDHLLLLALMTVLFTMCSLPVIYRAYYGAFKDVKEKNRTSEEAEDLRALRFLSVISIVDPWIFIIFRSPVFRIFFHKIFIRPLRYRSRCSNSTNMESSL

[2] = molecular target: human IP receptor (Homo sapiens, UniProt P43119); test: Cell-based cAMP TR-FRET assay, Schild KB against iloprost at IP; conditions: for S.I (IP/EP2): selectivity index IP KB/EP2 KB
Chain of human IP receptor (P43119 whole entry): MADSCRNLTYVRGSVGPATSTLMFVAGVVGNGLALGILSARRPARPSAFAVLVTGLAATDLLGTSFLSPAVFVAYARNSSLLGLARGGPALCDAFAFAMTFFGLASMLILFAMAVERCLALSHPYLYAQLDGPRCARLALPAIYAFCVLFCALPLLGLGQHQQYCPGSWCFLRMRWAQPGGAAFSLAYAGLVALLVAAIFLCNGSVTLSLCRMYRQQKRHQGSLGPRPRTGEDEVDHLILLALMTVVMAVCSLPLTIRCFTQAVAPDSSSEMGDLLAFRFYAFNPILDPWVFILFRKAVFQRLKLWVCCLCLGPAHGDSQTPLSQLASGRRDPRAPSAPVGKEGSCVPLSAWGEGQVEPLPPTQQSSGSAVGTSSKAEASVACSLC

[3] = 24 h shake flask thermodynamic solubility in neat water; assay type: physicochemical
[4] = Solubility in simulated gastric fluid pH 2.0 by nephelometry; assay type: physicochemical
[5] = cited from earlier work
[6] = Mouse liver microsomal stability
[7] = molecular target: human EP2 receptor (Homo sapiens, UniProt P43116); test: Cell-based cAMP TR-FRET assay, Schild KB against PGE2 at EP2; conditions: for fold less EP2 potency in comparison to 2a: comparator 2a; for fold less potent than equivalent nicotinic derivative: 11a vs 8b, 11b vs 8g, 11c vs 8f
Chain of human EP2 receptor (P43116 whole entry): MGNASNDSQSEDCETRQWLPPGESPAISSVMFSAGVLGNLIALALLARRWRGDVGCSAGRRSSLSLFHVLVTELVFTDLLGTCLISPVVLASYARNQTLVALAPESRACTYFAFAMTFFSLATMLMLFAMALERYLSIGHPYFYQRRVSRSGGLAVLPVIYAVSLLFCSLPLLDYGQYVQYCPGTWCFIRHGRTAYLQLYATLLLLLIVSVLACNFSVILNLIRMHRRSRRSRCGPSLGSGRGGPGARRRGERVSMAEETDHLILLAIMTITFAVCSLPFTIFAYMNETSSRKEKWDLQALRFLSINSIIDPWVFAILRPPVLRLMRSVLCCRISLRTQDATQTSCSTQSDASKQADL

[8] = molecular target: human EP4 receptor (Homo sapiens, UniProt P35408); test: Cell-based cAMP TR-FRET assay, Schild KB against PGE2 at EP4; conditions: for S.I (EP4/EP2): selectivity index EP4 KB/EP2 KB
Chain of human EP4 receptor (P35408 whole entry): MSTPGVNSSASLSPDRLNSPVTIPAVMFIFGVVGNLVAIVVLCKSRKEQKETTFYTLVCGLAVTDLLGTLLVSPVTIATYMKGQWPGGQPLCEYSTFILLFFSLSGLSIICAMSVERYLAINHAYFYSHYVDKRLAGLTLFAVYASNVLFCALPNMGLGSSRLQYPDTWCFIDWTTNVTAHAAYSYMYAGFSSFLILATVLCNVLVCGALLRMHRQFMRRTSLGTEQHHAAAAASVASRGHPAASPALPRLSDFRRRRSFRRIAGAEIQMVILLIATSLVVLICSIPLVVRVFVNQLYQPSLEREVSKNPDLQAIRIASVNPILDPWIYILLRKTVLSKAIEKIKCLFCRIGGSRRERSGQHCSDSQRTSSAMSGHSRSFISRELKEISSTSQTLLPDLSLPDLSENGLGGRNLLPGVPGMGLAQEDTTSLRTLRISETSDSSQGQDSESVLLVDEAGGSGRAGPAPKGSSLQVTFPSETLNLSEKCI

[9] = Human liver microsomal stability; assay type: in vitro ADME; conditions: 1 μM compound, 0.5 mg/mL human liver microsomes (compounds 1 and 3)
[10] = Mouse pharmacokinetics and brain-to-plasma ratio; assay type: in vivo
[11] = system: MDR1-MDCK cell line; test: Permeability across MDR1-expressed MDCK cell monolayers
[12] = Metabolite identification in mouse liver microsomes; assay type: in vitro ADME; conditions: 20 min incubation, LC-MS/MS
[13] = system: MDR1-MDCK cell line
[14] = Kinetic aqueous solubility in PBS pH 7.4 by nephelometry; assay type: physicochemical; conditions: comparator 2a

Structure (SMILES): Cc1cc(C)nc(Nc2ncc(C(=O)NCCc3c(C)[nH]c4ccccc34)cn2)c1.Cl [20o.HCl, 2-((4,6-Dimethylpyridin-2-yl)amino)-N-(2-(2-methyl-1H-indol-3-yl)ethyl)pyrimidine-5-carboxamide.Hydrochloride]
water pH after dissolving the compound ([3]; 2 mg/mL in neat water, starting pH 6.4): 3.5

Structure (SMILES): Cc1[nH]c2ccccc2c1CCNC(=O)c1ccc(N2CCOCC2)cc1 [2a]
half-life in mouse liver microsomes [5]: < 2 min | half-life at 1 μM ([6]; mouse, pooled liver microsomes): < 2 min

Structure (SMILES): Cc1[nH]c2ccccc2c1CCNC(=O)c1ccc(-c2ccccc2F)nc1 [8e, 6-(2-Fluorophenyl)-N-(2-(2-methyl-1H-indol-3-yl)ethyl)nicotinamide]
fold less EP2 potency in comparison to 2a [7]: 2 fold | fold less EP2 potency in comparison to 8c ([7]; comparator 8c (14b: vs. 14c or 8c)): 4 fold

Structure (SMILES): Cc1cc(C)nc(Nc2ncc(C(=O)NCCc3c(C)[nH]c4c(Cl)cc(Cl)cc34)cn2)c1.Cl [24d.HCl]
Water solubility of corresponding HCl salt ([3]; HCl salt, neat water, 2 mg/mL, 24 h shake flask, HPLC): c The solubility of compounds measured in simulated gastric fluid at pH 2.0 by nephelometry. Compound 24dis a milky-white solution in DMSO and 24 h is an inactive compound. Therefore, their solubility is not determined by nephelometry, however, 24d.HClis highly water soluble.

Structure (SMILES): COc1ccccc1-c1ncc(C(=O)NCCc2c(C)[nH]c3ccccc23)cn1 [14a, 2-(2-Methoxyphenyl)-N-(2-(2-methyl-1H-indol-3-yl)ethyl)pyrimidine-5-carboxamide]
S.I (EP4/EP2) [8]: 517 | S.I (IP/EP2) [2]: 730 | solubility ([4]; simulated gastric fluid): > 100 µM

Structure (SMILES): COc1cc(/C=C/C(=O)NCCn2c(C(F)(F)F)cc3ccccc32)cc(OC)c1OC [compound 1]
HLM t1/2 [9]: 11 min | In vivo plasma t1/2 ([10]; mice, ip/po, 10 mg/kg dose): 1.7 (ip/po, 10 mg/kg dose) h | MLM t1/2 ([6]; 1 μM compound, 0.5 mg/mL mouse liver microsomes (compounds 1 and 3)): 10 min | Permeability across MDR1-MDCK cell line, A-B ([11]; apical-to-basolateral): 25.4 ×10⁻⁶ cm/s | Permeability across MDR1-MDCK cell line, B-A ([11]; basolateral-to-apical): 27.1 ×10⁻⁶ cm/s

Structure (SMILES): Cc1[nH]c2ccccc2c1CCNC(=O)c1ccc(-c2nnn[nH]2)cc1 [compound 3]
metabolic fragments in mouse liver microsomes [12]: did not produce any fragments even after 20 minutes of incubation; also recorded: has not shown any metabolic fragments even after 20 min of incubation | stability in mouse liver microsomes [5]: > 60 min

Structure (SMILES): COc1cccc(-c2ccc(C(=O)NCCc3c(C)[nH]c4ccccc34)nc2)c1 [11a, 5-(3-Methoxyphenyl)-N-(2-(2-methyl-1H-indol-3-yl)ethyl)picolinamide]
fold less potent than equivalent nicotinic derivative [7]: 4 fold

Structure (SMILES): Cc1cc(C)nc(Nc2ncc(C(=O)NCCc3c(C)[nH]c4ccccc34)cn2)c1 [20o, 2-((4,6-Dimethylpyridin-2-yl)amino)-N-(2-(2-methyl-1H-indol-3-yl)ethyl)pyrimidine-5-carboxamide]
solubility [4]: > 250 µM | efflux pump substrate status [13]: not the substrate of efflux pumps | Permeability across MDR1-MDCK cell line, A-B ([13]; dog): B-A: 22.2 × 10^−6 cm/s A-B: 13.2 × 10^−6 cm/s | Permeability across MDR1-MDCK cell line, B-A ([13]; dog): B-A: 22.2 × 10^−6 cm/s A-B: 13.2 × 10^−6 cm/s

Structure (SMILES): Cc1[nH]c2ccccc2c1CCNC(=O)c1ccc(N2CCOCC2)nc1 [2b, N-(2-(2-Methyl-1H-indol-3-yl)ethyl)-6-morpholinonicotinamide]
fold less EP2 potency in comparison to 2a [7]: 4 fold | fold increased aqueous solubility [14]: 3 fold

Structure (SMILES): COc1cc(OC)cc(-c2ccc(C(=O)NCCc3c(C)[nH]c4ccccc34)nc2)c1 [11b, 5-(3,5-Dimethoxyphenyl)-N-(2-(2-methyl-1H-indol-3-yl)ethyl)picolinamide]
fold less potent than equivalent nicotinic derivative [7]: 11 fold

Now from value to compound:

Kb [1]: > 10 µM | S.I. (DP1/EP2) [1]: >1280 | Kb [2]: > 10 µM | S.I (IP/EP2) [2]: >1280
Structure (SMILES): COc1cccc(Nc2ncc(C(=O)NCCc3c(C)[nH]c4ccccc34)cn2)n1 [20h, 2-((6-Methoxypyridin-2-yl)amino)-N-(2-(2-methyl-1H-indol-3-yl)ethyl)pyrimidine-5-carboxamide]

Kb [2]: > 10 µM | S.I (IP/EP2) [2]: >500 | solubility ([4]; simulated gastric fluid): > 100 µM
Structure (SMILES): Cc1cc(C)nc(Nc2ncc(C(=O)NCCc3c(C)[nH]c4c(F)cc(F)cc34)cn2)c1 [24c, N-(2-(5,7-Difluoro-2-methyl-1H-indol-3-yl)ethyl)-2-((4,6-dimethylpyridin-2-yl)amino)pyrimidine-5-carboxamide]

Kb [8]: > 10 µM | S.I (EP4/EP2) [8]: >1200 | Kb [2]: > 10 µM | S.I (IP/EP2) [2]: >1200
Structure (SMILES): Cc1[nH]c2ccccc2c1CCNC(=O)c1cnc(Nc2cccnc2)nc1 [20q, N-(2-(2-Methyl-1H-indol-3-yl)ethyl)-2-(pyridin-3-ylamino)pyrimidine-5-carboxamide]

EP2 potency in words [7]: eliminated the potency
Structure (SMILES): Cc1cc(C)nc(Nc2ncc(C(=O)NCC(=O)c3c(C)[nH]c4ccccc34)cn2)c1 [24h, 2-((4,6-Dimethylpyridin-2-yl)amino)-N-(2-(2-methyl-1H-indol-3-yl)-2-oxoethyl)pyrimidine-5-carboxamide]

Kb [8]: > 10 µM | S.I (EP4/EP2) [8]: >350 | Kb [2]: > 10 µM | S.I (IP/EP2) [2]: >350
Structure (SMILES): Cc1cc(C)nc(Nc2ncc(C(=O)NCCc3c(C)[nH]c4ccc(Cl)cc34)cn2)c1 [24b, N-(2-(5-Chloro-2-methyl-1H-indol-3-yl)ethyl)-2-((4,6-dimethylpyridin-2-yl)amino)pyrimidine-5-carboxamide]

S.I (EP4/EP2) [8]: >1500 | S.I (IP/EP2) [2]: >1500
Structure (SMILES): Cc1cccc(Nc2ncc(C(=O)NCCc3c(C)[nH]c4ccccc34)cn2)n1 [20e, N-(2-(2-Methyl-1H-indol-3-yl)ethyl)-2-((6-methylpyridin-2-yl)amino)pyrimidine-5-carboxamide]

fold reduced EP2 potency in comparison to 20b ([7]; comparator 20b): 20 fold
Structure (SMILES): CC(=O)c1ccc(Nc2ncc(C(=O)NCCc3c(C)[nH]c4ccccc34)cn2)nc1 [20l, 2-((5-Acetylpyridin-2-yl)amino)-N-(2-(2-methyl-1H-indol-3-yl)ethyl)pyrimidine-5-carboxamide]

S.I (EP4/EP2) [8]: >1500 | S.I (IP/EP2) [2]: >1500 | in vivo stability in words ([10]; mouse, in vivo): unstable in vivo
Structure (SMILES): Cc1[nH]c2ccccc2c1CCNC(=O)c1cnc(Nc2cc(F)ccn2)nc1 [20c, 2-((4-Fluoropyridin-2-yl)amino)-N-(2-(2-methyl-1H-indol-3-yl)ethyl)pyrimidine-5-carboxamide]

fold reduced EP2 potency ([7]; comparator not clearly stated): 10 fold
Structure (SMILES): Cc1ccc(Nc2ncc(C(=O)NCCc3c(C)[nH]c4ccccc34)cn2)c(C)n1 [20r, 2-((2,6-Dimethylpyridin-3-yl)amino)-N-(2-(2-methyl-1H-indol-3-yl)ethyl)pyrimidine-5-carboxamide]

S.I. (DP1/EP2) [1]: >900 | S.I (IP/EP2) [2]: >900
Structure (SMILES): Cc1[nH]c2ccccc2c1CCNC(=O)c1cnc(Nc2ccccn2)nc1 [20a, N-(2-(2-Methyl-1H-indol-3-yl)ethyl)-2-(pyridin-2-ylamino)pyrimidine-5-carboxamide]

fold reduced EP2 potency in comparison to 20o ([7]; comparator 20o): 8 fold
Structure (SMILES): Cc1cc(C)nc(Nc2ncc(C(=O)NCCc3c(C(F)(F)F)[nH]c4ccccc34)cn2)c1 [24f, 2-((4,6-Dimethylpyridin-2-yl)amino)-N-(2-(2-(trifluoromethyl)-1H-indol-3-yl)ethyl)pyrimidine-5-carboxamide]

fold higher half-life in mouse liver microsomes ([6]; 24i vs 20o, 20c vs 20b, 20f vs 20e): 8 fold
Structure (SMILES): Cc1[nH]c2ccccc2c1CCNC(=O)c1cnc(Nc2cccc(F)n2)nc1 [20f, 2-((6-Fluoropyridin-2-yl)amino)-N-(2-(2-methyl-1H-indol-3-yl)ethyl)pyrimidine-5-carboxamide]

EP2 potency in words [7]: complete loss of potency
Structure (SMILES): Cc1[nH]c2ccccc2c1CCNC(=O)c1cnc(Nc2ccncc2)nc1 [20p, N-(2-(2-Methyl-1H-indol-3-yl)ethyl)-2-(pyridin-4-ylamino)pyrimidine-5-carboxamide]
